Experimental findings from publication PMC7354218 (ACS infectious diseases, 2020) are described below.

As usually defined, the Kd is the constant that tells how readily two partners part at equilibrium. Low values mean a tighter complex, high ones a looser complex. In general, IC50 refers to the concentration at which inhibition is half-maximal. Usually Km stands for the concentration of substrate that gives half-maximal velocity. Usually kcat stands for the maximal rate divided by the concentration of active sites. For orientation: kcat/Km means the second-order rate constant that governs catalysis at low substrate concentration.

Values joined by “and” are separate entries in the source; they are usually repeats but may differ in a detail not shown here. Equal entries are not always repeated. Structures can show the parent of a compound that is named as a salt. Where two headings read alike, the source gives them in different places.

Data set [1] has as its target NpsA. In kind it is biochemical, Klebsiella oxytoca. The conditions noted are these: read-out: appKi.
The target of data set [2] is NpsA. In kind it is binding, Klebsiella oxytoca. The conditions noted are these: pH 6.8.
A further data set concerns K. oxytoca. In kind it is cell-based, Klebsiella oxytoca.
Data set [3] deals with K. oxytoca strain MIT 10-5243. The data set is classed as cell-based, Klebsiella oxytoca. To be noted: read-out: IC50 for inhibition of tilivalline production.
Data set [4] has as its system NpsA. The data set is classed as biochemical, Klebsiella oxytoca.
A further data set concerns NpsB. In kind it is biochemical, Klebsiella oxytoca. To be noted: pH 8.
Data set [5] concerns the target T1, NpsA (wt-NpsA) (Klebsiella oxytoca, UniProt A0A291NW45). Nature of the data set: biochemical. The conditions noted are these: n = 3.
The target of data set [6] is T1, NpsA (wt-NpsA). Description: biochemical. To be noted: n = 3. The data set is classed as binding.
Another data set deals with Nc1c(O)cccc1C(=O)O. Description: purified protein, by the assay type. The conditions noted are these: pH 8.0.
In data set [7] the test system is Nc1ncnc2c1ncn2[C@@H]1O[C@H](COP(=O)(O)OP(=O)(O)OP(=O)(O)O)[C@@H](O)[C@H]1O. Nature of the data set: purified protein, by the assay type. The conditions noted are these: pH 8.0.
For another data set, the system named is O=C(O)c1cccc(O)c1. Description: purified protein, by the assay type. The conditions noted are these: pH 8.0.

T1 sequence (A0A291NW45 1-506): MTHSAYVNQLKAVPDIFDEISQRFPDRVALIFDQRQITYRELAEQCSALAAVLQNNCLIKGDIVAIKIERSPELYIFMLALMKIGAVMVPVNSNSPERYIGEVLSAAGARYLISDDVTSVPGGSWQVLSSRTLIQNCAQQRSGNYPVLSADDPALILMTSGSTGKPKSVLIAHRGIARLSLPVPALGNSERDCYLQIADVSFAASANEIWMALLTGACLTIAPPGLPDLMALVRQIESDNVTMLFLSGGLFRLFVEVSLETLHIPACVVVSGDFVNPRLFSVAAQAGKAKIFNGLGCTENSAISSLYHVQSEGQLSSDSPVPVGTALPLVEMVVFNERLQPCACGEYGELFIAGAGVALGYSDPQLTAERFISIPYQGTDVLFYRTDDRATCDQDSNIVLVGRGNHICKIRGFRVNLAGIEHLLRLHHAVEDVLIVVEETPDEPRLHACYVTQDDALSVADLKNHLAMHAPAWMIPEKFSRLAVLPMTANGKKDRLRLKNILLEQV
T1 sequence (A0A291NW67 1-76 partner): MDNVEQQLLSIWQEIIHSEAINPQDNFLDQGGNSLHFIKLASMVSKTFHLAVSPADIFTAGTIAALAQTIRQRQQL

Consider “5′-[N-(2-Amino-3-hydroxybenzoyl)sulfamoyl]amino-5′-deoxyadenosine triethylammonium salt [Compound 5]”, for which, at NpsA [1], the Ki came out at 54 nM. Also, on NpsA [2], the dissociation constant Kd was 29 nM and 29.3 nM. In addition, the “growth inhibition of K. oxytoca” value in the data set with K. oxytoca is reported as “does not inhibit growth”.
For the compound “5′-[N-(2-Aminobenzoyl)sulfamoyl]amino-5′-deoxyadenosine triethylammonium salt [Compound 9]”, the Ki on NpsA [1] is 1200 nM. The compound further gave a dissociation constant (Kd) on NpsA [2] of 485 nM.
On to “5′-[N-(3-Hydroxybenzoyl)sulfamoyl]amino-5′-deoxyadenosine triethylammonium salt [Compound 8]”, for which the Ki on NpsA [1] amounted to 230 nM. Moreover, on NpsA [2], the affinity, expressed as Kd, was 112 nM. Also, the half-maximal inhibitory concentration (IC50) in data set [3] is 29000 nM. Further, the “growth inhibition of K. oxytoca” value in the data set with K. oxytoca is recorded as “no observable growth inhibition”.
Consider `Nc1c(O)cccc1C(=O)O` [3-Hydroxyanthranilic acid], for which, in the data set on NpsA [4] (pH 8), the “kcat (apparent)” value is 0.78 ± 0.01 s⁻¹. Moreover, in the data set on NpsA [4] (read-out: KM (apparent), pH 8), the Km amounted to 63 µM.
Regarding `O=C(O)c1cccc(O)c1` [3-Hydroxybenzoic acid], in the data set on NpsA [4], the “fold decrease in specificity constant (kcat/KM)” value is 200 fold. In addition, the “kcat (apparent)” value with NpsA [4] (pH 8) turned out to be 0.35 ± 0.07 s⁻¹. Also, the Michaelis constant (Km) in the data set with NpsA [4] (read-out: KM (apparent), pH 8) is 4000 µM.
On to `Nc1ncnc2c1ncn2[C@@H]1O[C@H](COP(=O)(O)OP(=O)(O)OP(=O)(O)O)[C@@H](O)[C@H]1O` [ATP, adenosine triphosphate], for which the “kcat (apparent)” value in the data set on NpsA [4] (pH 8) was determined as 0.82 ± 0.01 s⁻¹; in the data set on NpsB it was 0.056 ± 0.002 s⁻¹. Moreover, the Michaelis-Menten constant (Km) came out at 15 µM in the data set with NpsA [4] (read-out: KM (apparent), pH 8) and 21 µM in the data set on NpsB (read-out: KM (apparent)).
In the case of `Nc1ccccc1C(=O)O` [Anthranilic acid], the Km was 854 µM with NpsA [4] and 850 µM with NpsA [4] (read-out: KM (apparent), pH 8). Further, in the data set with NpsA [4], the “fold decrease in specificity constant (kcat/KM)” value came to 52 fold. Further, the “kcat (apparent)” value in the data set with NpsA [4] (pH 8) was 0.29 ± 0.01 s⁻¹.
With `O=C(O)[C@@H]1CCCN1` [L-Proline], in the data set on NpsB, the “kcat (apparent)” value was determined as 0.037 ± 0.002 s⁻¹.
On to `Nc1c(O)cccc1C(=O)NS(=O)(=O)NC[C@H]1O[C@@H](n2cnc3c(N)ncnc32)[C@H](O)[C@@H]1O` [compound 5, 3-hydroxyanthraniloyl-AMS; 5′-[N-(2-Amino-3-hydroxybenzoyl)sulfamoyl]amino-5′-deoxyadenosine triethylammonium salt], for which the Ki at NpsA (wt-NpsA) [5] was 54 nM. Besides, the Kd at NpsA (wt-NpsA) [6] stood at 29.3 nM.
On the same counts, the results for `Nc1ncnc2c1ncn2[C@@H]1O[C@H](CNS(=O)(=O)NC(=O)c2cccc(O)c2)[C@@H](O)[C@H]1O` [compound 8, 3-hydroxybenzoyl-AMS; 5′-[N-(3-Hydroxybenzoyl)sulfamoyl]amino-5′-deoxyadenosine triethylammonium salt] are 230 nM and 112 nM.
Compound `Nc1ccccc1C(=O)NS(=O)(=O)NC[C@H]1O[C@@H](n2cnc3c(N)ncnc32)[C@H](O)[C@@H]1O` [compound 9, anthraniloyl-AMS; 5′-[N-(2-Aminobenzoyl)sulfamoyl]amino-5′-deoxyadenosine triethylammonium salt] displayed a Ki on NpsA (wt-NpsA) [5] of 1200 nM. Besides, binding at NpsA (wt-NpsA) [6] was put at a Kd of 485 nM.
Take NpsA (wt-NpsA) (Klebsiella oxytoca): in the data set on Nc1c(O)cccc1C(=O)O, the Km entry is “(6.3 ± 0.2) × 10^1 uM”, the catalytic constant (kcat) came to 0.78 ± 0.01 s⁻¹ and the kcat/Km came to 18000 ± 1000 M⁻¹ s⁻¹. Also, in data set [7], the Michaelis-Menten constant (Km) entry is given as “(1.5 ± 0.1) × 10^1 uM”, the kcat worked out at 0.82 ± 0.01 s⁻¹ and the specificity constant (kcat/Km) worked out at 56000 ± 4000 M⁻¹ s⁻¹. Further, in the data set on O=C(O)c1cccc(O)c1, the Km entry is “(4.0 ± 0.9) × 10^3 uM”, the catalytic constant (kcat) amounted to 0.35 ± 0.07 s⁻¹ and the kcat/Km came to 88 ± 26 M⁻¹ s⁻¹.
